Article PMC3509570, “Bioavailability and Brain-Targeting of Geniposide in Gardenia-Borneol Co-Compound by Different Administration Routes in Mice” (International Journal of Molecular Sciences, 2012)
Where “and” joins values, the source holds several entries; their conditions need not be identical. Equal values may be shown once. Read-outs that look alike come from different tables or passages of the source.

How the values were obtained:
[1] = cited from earlier work
[2] = Brain pharmacokinetics and brain targeting of Ge in mice after i.v., i.n. and i.g. administration of Gardenia-Borneol co-compound; assay type: in vivo; settings: for Kp / MRT last / Cmax / Tmax / AUC(0-t): mouse; for Kp: read-out: Te (brain/blood drug ratio); for MRT last / Cmax / Tmax / AUC0–120 / AUC(0-t): brain; for Cmax: 18 mg/kg gardenia extract + 18 mg/kg borneol; for AUC(0-t): read-out: AUC0–120 (converted)
Protocol: The relative brain targeted coefficient was Re, Re = AUCbrain (i.n./i.g.)/AUCbrain (i.v.) × 100%. The brain/blood drug ratio was Te, Te = AUCbrain/AUCblood × 100%. So the drug target index was DTI, DTI = Te(i.n. /i.g.)/Te(i.v). […] AUC0–120 was 37270.5 ± 4160.6, 32413.6 ± 4573.9 and 6440.1 ± 863.7 […] for i.v., i.n. and i.g., respectively.
(§1) The separation was carried out using a Diamonsil C18 column ([…], i.d., 5.0 μm) under the following chromatographic conditions: column temperature, 25 °C; sample injection volume, 20 μL; flow rate, 1.0 mL/min; detection wavelength, 238 nm; and mobile phase, acetonitrile-water(14:86).
(§2) 1% (v/v) of Tween-80 and 20% (v/v) ethanol were dissolved in physiological saline and used as the solvent for drugs. 1.2 g of borneol fine powder and 1.2 g gardenia extract were dissolved into 10 mL solvent, named as co-compound nasal drops. Dilute 0.3 mL of nasal drops precisely with 1% Tween 80-normal saline solution into 10 mL, filtrate by 0.22 μm filter, named as co-compound injection. Dilute 0.3 mL of nasal drops precisely with 1% Tween 80-normal saline solution into 10 mL, named as co-compound intragastric solution.
(§3) 120 mice were divided into 3 groups (A, B, C), equally and randomly, 40 for each group. Group A was injected 0.1 mL co-compound injection via the tail vein. Group B was treated 3 μL nasal drops with a soft PE polyethylene tube after anesthesia by ether steam. Group C was treated 0.1 mL co-compound intragastric solution. The doses chosen for the mice were 18mg/kg·d (borneol and gardenia extract, respectively), 3 times based on the doses for human beings. The blood samples were collected into heparinized tubes by pricking the eyeball. Then, mice were killed by decollation. The corresponding brains were also collected at 1, 3, 5, 10, 30, 60, 90 and 120 min after drug administration. The brains were accurately weighed, and plasma was obtained after centrifugation. The sample processing and determination were immediately made when plasma and brain tissue were obtained.
The brains were washed by normal saline to remove excess surface blood and were dried by filter paper. The bloodless brains were homogenized after mixing with normal saline solution 1.5 times to the weight. After centrifugation at 12,000 rpm for 5 min, 600 μL methanol (the brain homogenate was 300 μL) was added in the supernatant to precipitate proteins in the sample. After being vortexed for 1 min, the solution was centrifuged at 12,000 rpm for 5 min. Then, supernatant was removed and evaporated under air stream in a water bath at 60 °C. The residue was dissolved in 100 μL of methanol and vortexed for 30 s, centrifuged at 12,000 rpm for 5 min. 20 μL aliquot supernatant was injected into the HPLC system for analysis.

[3] = Plasma pharmacokinetics of Ge in mice after i.v., i.n. and i.g. administration of Gardenia-Borneol co-compound; assay type: in vivo; settings: for bioavailability / Cmax / AUC(0-t) / MRT last / Tmax: mouse; for bioavailability: read-out: F (absolute bioavailability); for Cmax / AUC(0-t) / MRT last / Tmax: 18 mg/kg gardenia extract + 18 mg/kg borneol; for AUC(0-t): read-out: AUC0–120 (converted); for MRT last: read-out: MRT0–120 (converted)
Protocol: Non-compartmental analysis of pharmacokinetic data was performed by Kinetica 4.4 software. The absolute bioavailability was F, F = AUCblood (i.n./i.g.)/AUCblood (i.v.) × 100%.
as §1, §2, §3
Plasma sample (100 μL) was placed into a centrifuge tube. To precipitate proteins in the sample, 300 μL acetonitrile was added and vortexed for 1 min. After centrifugation at 10,000 rpm for 10 min, supernatant was removed and evaporated under air stream in a water bath at 60 °C. The residue was dissolved in 100 μL of methanol and vortexed for 30 s, centrifuged at 10,000 rpm for 10 min. 20 μL of supernatant was injected into the HPLC system for analysis.

[4] = octanol/water system; cited from earlier work
[5] = ICR, in vivo, po, 18 mg/kg, i.g.
[6] = ICR, inhaled or intranasal, 18 mg/kg, i.n.
[7] = inhaled or intranasal, plasma, i.n.

Q: With `COC(=O)C1=CO[C@@H](O[C@@H]2O[C@H](CO)[C@@H](O)[C@H](O)[C@H]2O)[C@@H]2C(CO)=CC[C@H]12` [Ge, geniposide] as the compound, how does the “intranasal absorption coefficient (K)” value ([1]; Ge alone) read?
A: 0.061 h⁻¹

Q: What about the “intranasal absorption coefficient (K)” value ([1]; Ge in Gardenia-Borneol co-compound) of the same compound?
A: 0.11 h⁻¹

Q: What about the Kp ([2]; ICR, in vivo, i.g.) of the same compound?
A: 0.0689

Q: And the Kp ([2]; ICR, in vivo, i.n.)?
A: 0.117

Q: What about the MRT last ([2]; ICR, in vivo, iv, 18 mg/kg) of the same compound?
A: 48.3 min

Q: And the Kp ([2]; ICR, in vivo, iv, Te = AUCbrain/AUCblood × 100%)?
A: 0.115

Q: And the Cmax ([2]; ICR, in vivo, iv, i.v.)?
A: 1480 ± 145 ng/g

Q: What about the MRT last [2, 5] of the same compound?
A: 60 min

Q: And the Tmax [2, 5]?
A: 60 min

Q: And the Cmax ([2]; ICR, in vivo, po, i.g.)?
A: 76.2 ± 22.1 ng/g

Q: And the MRT last [2, 6]?
A: 51.2 min

Q: And the Tmax [2, 6]?
A: 3 min

Q: And the Cmax ([2]; ICR, inhaled or intranasal, i.n.)?
A: 747 ± 175 ng/g

Q: What about the “AUC0–120” value ([2]; i.g.) of the same compound?
A: 6440.1 ± 863.7 ng·min/g

Q: And the “AUC0–120” value ([2]; i.n.)?
A: 32413.6 ± 4573.9 ng·min/g

Q: What about the “AUC0–120” value ([2]; i.v.) of the same compound?
A: 37270.5 ± 4160.6 ng·min/g

Q: What about the “Re (relative brain targeted coefficient)” value ([2]; i.g. vs i.v.) of the same compound?
A: 17.28% and 17.28 ^** %

Q: And the “brain peak concentration compared to the i.v. group” value ([2]; i.g. vs i.v.)?
A: 1/20

Q: And the “DTI (drug target index)” value ([2]; i.n. vs i.v.)?
A: 1.02

Q: And the “Re (relative brain targeted coefficient)” value ([2]; i.n. vs i.v.)?
A: 86.97%

Q: And the “brain peak concentration compared to the i.v. group” value ([2]; i.n. vs i.v.)?
A: up to 1/2

Q: And the “DTI (drug target index)” value ([2]; i.v. (reference), DTI = Te(i.n./i.g.)/Te(i.v.))?
A: 1

Q: And the “Re (relative brain targeted coefficient)” value ([2]; i.v. (reference), Re = AUCbrain(i.n./i.g.)/AUCbrain(i.v.) × 100%)?
A: 100%

Q: And the AUC(0-t) ([2]; in vivo, inhaled or intranasal, 18 mg/kg, i.n.)?
A: 540000 ng·h/mL

Q: And the AUC(0-t) ([2]; in vivo, iv, 18 mg/kg, i.v.)?
A: 621000 ng·h/mL

Q: What about the AUC(0-t) ([2]; in vivo, po, 18 mg/kg, i.g.) of the same compound?
A: 107000 ng·h/mL

Q: What about the Tmax ([2]; in vivo, po, i.g.) of the same compound?
A: ~60 min

Q: What about the “Cmax in plasma relative to i.v.” value ([3]; i.g. vs i.v.) of the same compound?
A: 1/20

Q: What about the “Cmax in plasma relative to i.v.” value ([3]; i.n. vs i.v.) of the same compound?
A: up to 1/2

Q: What about the bioavailability ([3]; in vivo, 18 mg/kg, i.g. vs i.v.) of the same compound?
A: 28.8%

Q: What about the bioavailability ([3]; in vivo, 18 mg/kg, i.v. (reference), F = AUCblood(i.n./i.g.)/AUCblood(i.v.) × 100%) of the same compound?
A: 100%

Q: And the Cmax ([3]; in vivo, iv, plasma, i.v.)?
A: 42400 ± 6270 ng/mL

Q: And the AUC(0-t) ([3]; in vivo, iv, plasma, i.v.)?
A: 5410 ng·h/mL

Q: What about the MRT last ([3]; in vivo, iv, plasma, i.v.) of the same compound?
A: 15 min

Q: What about the Tmax ([3]; in vivo, po, 18 mg/kg, plasma, i.g.) of the same compound?
A: ~30 min

Q: And the Cmax ([3]; in vivo, po, plasma, i.g.)?
A: 1910 ± 327 ng/mL

Q: What about the AUC(0-t) ([3]; in vivo, po, plasma, i.g.) of the same compound?
A: 1560 ng·h/mL

Q: What about the MRT last ([3]; in vivo, po, plasma, i.g.) of the same compound?
A: 42 min

Q: What about the Cmax [3, 7] of the same compound?
A: 21900 ± 5400 ng/mL

Q: What about the Tmax [3, 7] of the same compound?
A: 1 min

Q: And the AUC(0-t) [3, 7]?
A: 4620 ng·h/mL

Q: And the MRT last [3, 7]?
A: 31.7 min

Q: And the bioavailability ([3]; plasma, other: i.n. (nasal drops), 18 mg/kg, i.n. vs i.v.)?
A: 85.4%

Q: And the log p [4]?
A: −0.97
